A word on the IC50: it is the concentration that inhibits the measured activity by half.

Assay [1] concerns Plasmodium falciparum (strain NF54). Nature of the assay: Antimalarial activity test: growth of Plasmodium falciparum in infected human erythrocytes, 3H-hypoxanthine incorporation. Type of assay: cell-based. The conditions noted are these: strain NF54 sensitive to chloroquine, 72 h total incubation. How it is done:
The compounds according to the invention underwent pharmacological trials to determine their inhibitory effect on the growth of Plasmodium falciparum (strain NF54 sensitive to inhibition with chloroquine) in an in vitro test using infected human erythrocytes. The growth of the parasites is measured via the incorporation of tritiated hypoxanthine compared with the incorporation in the absence of drug. The tests are performed in 96-well microplates (Falcon™ 96-well microtiter plates, ref. No. 353072) in RPMI 1640 solutions (10.44 g/l) (without hypoxanthine) with HEPES (5.94 g/l), NaHCO3 (2.1 g/l), neomycin ([…])+AlbumaxR II (5 g/l) supplemented with human erythrocytes with a final hematocrit of 1.25% and a final parasitemia of 0.15%.
The stock solution of the compounds is prepared at 10 mg/mL in DMSO. For the test, fresh solutions at the desired concentrations are prepared in RPMI medium. For the test, 100 μl of compound are mixed with 100 μl of infected blood. For the determination of the IC50 values, the compounds are tested in twofold serial dilution.
The plates are incubated at 37° C. under a humid atmosphere with 93% N2, 4% CO2 and 3% O2. After 48 hours, 50 μl of ^3H-hypoxanthine (=0.5 μCi) in RPMI medium are added to each well and incubation is continued for a further 24 hours. Next, the plates are washed with distilled water and the cell lyzate is transferred onto fiberglass filters. The filters are dried and the radioactivity is determined by liquid scintillation. The results in cpm are converted into percentages of inhibition. The inhibitory activity is given by the concentration that inhibits 50% of the growth of the parasite relative to a control without compound.

In a further assay the target is human PI3Kα (Homo sapiens (Human), UniProt P42336). Description: Human PI3Kα activity test (luciferin/luciferase ATP consumption, KinaseGlo). Type of assay: biochemical. To be noted: PI3Kα (p110α/p85α), 50 μM PIP2, 2 μM ATP, 90 minutes; read-out: IC50 Human PI3Kα. (In general: Kinase-Glo measures the ATP left after a reaction by luminescence.)
Chain of human PI3Kα (P42336 whole entry): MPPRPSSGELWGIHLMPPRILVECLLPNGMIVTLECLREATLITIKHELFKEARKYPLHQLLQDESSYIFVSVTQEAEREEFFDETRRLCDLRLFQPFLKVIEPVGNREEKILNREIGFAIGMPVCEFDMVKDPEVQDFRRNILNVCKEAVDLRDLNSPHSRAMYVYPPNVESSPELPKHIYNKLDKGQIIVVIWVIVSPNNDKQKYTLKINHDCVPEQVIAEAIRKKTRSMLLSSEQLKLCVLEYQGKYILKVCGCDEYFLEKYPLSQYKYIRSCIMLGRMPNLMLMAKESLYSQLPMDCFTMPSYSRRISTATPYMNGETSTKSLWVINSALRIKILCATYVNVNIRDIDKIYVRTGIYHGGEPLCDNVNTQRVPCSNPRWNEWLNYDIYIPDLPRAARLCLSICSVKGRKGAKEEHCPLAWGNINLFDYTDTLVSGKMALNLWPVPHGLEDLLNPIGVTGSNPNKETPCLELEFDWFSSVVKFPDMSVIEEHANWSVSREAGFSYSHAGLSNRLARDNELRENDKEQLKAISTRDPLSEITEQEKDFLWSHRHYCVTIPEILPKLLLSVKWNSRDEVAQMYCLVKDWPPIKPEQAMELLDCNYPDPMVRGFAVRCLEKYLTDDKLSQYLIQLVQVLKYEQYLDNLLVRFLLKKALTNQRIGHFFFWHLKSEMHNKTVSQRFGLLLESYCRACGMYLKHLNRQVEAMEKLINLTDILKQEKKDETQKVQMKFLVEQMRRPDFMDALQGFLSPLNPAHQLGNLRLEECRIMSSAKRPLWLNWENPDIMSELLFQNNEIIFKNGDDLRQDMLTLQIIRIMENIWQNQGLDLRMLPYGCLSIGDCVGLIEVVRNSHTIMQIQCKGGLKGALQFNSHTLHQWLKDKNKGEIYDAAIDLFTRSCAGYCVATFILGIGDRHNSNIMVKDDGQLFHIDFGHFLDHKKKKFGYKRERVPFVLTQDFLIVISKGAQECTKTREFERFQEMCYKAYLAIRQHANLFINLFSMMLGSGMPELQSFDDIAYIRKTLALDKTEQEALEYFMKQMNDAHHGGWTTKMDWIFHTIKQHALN
Chain of human PI3Kα (P27986 whole entry partner): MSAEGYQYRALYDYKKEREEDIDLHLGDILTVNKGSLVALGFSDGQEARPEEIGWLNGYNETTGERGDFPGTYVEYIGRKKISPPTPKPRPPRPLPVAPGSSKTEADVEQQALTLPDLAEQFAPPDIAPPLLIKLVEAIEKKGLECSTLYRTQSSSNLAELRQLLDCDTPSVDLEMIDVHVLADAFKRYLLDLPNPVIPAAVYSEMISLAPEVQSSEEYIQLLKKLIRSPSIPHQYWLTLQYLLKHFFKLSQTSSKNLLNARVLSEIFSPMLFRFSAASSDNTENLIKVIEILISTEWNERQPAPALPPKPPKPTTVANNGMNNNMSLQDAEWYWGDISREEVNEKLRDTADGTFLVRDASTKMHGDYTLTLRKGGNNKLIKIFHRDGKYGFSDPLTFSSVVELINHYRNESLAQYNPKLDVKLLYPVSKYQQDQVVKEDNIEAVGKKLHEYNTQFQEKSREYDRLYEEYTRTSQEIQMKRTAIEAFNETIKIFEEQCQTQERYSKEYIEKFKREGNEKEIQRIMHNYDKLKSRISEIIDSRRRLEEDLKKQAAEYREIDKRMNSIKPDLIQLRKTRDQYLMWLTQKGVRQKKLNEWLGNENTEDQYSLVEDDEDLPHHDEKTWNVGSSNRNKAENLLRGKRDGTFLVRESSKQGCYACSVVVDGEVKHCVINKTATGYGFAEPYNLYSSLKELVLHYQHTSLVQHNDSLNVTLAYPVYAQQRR
The mark [2] stands for this setting: Plasmodium falciparum, Erythrocyte.

Experimental for human PI3Kα: The test uses a luciferin/luciferase system to measure the concentration of ATP and its consumption during the enzymatic reaction.
After 90 minutes, the reaction is quenched by adding 20 μl/well of KinaseGlo reagent (Promega V6713). After 10 minutes in the dark, the luminescence is read using a PHERAStar microplate reader (reading at 0.8 sec/well).

As for `C[C@@]1(C(F)(F)F)Cn2c(nc(N3C[C@@H]4C[C@H]3CO4)cc2=O)N1CCc1cccnc1` [Compound 13, 2-Methyl-7-(1S,4S)-2-oxa-5-azabicyclo[2.2.1]hept-5-yl-1-(2-pyrid-3-ylethyl)-2-((S)-trifluoromethyl)-2,3-dihydro-1H-imidazo[1,2-a]pyrimidin-5-one], the IC50 in assay [1] was found to be 21 nM; at human PI3Kα it was 5750 nM.

Consider `O=C(CN1c2nc(N3C[C@@H]4C[C@H]3CO4)cc(=O)n2CC[C@H]1C(F)(F)F)c1ccc(NCCO)nc1` [Compound 14, (8S)-9-{2-[6-(2-hydroxyethylamino)pyrid-3-yl]-2-oxoethyl}-2-(1S,4S)-2-oxa-5-azabicyclo[2.2.1]hept-5-yl-8-trifluoromethyl-6,7,8,9-tetrahydropyrimido[1,2-a]pyrimidin-4-one], for which the results for the IC50 (in assay [1] (setting [2]); on human PI3Kα) were 70 nM and greater than 10000 nM, respectively.

For the compound `Cc1cncc(C(=O)CN2c3nc(N4C[C@@H]5C[C@H]4CO5)cc(=O)n3CC[C@H]2C(F)(F)F)c1` [Compound 15, (8S)-9-[2-(5-methylpyrid-3-yl)-2-oxoethyl]-2-(1S,4S)-2-oxa-5-azabicyclo[2.2.1]hept-5-yl-8-trifluoromethyl-6,7,8,9-tetrahydropyrimido[1,2-a]pyrimidin-4-one], the IC50 in assay [1] (setting [2]) was 150 nM; on human PI3Kα it was greater than 7200 nM.

For `Cc1cncc(C(=O)CN2c3nc(N4C[C@@H]5C[C@H]4CO5)cc(=O)n3C[C@@]2(C)C(F)(F)F)c1` [Compound 16, 2-methyl-1-[2-(5-methylpyrid-3-yl)-2-oxoethyl]-7-(1S,4S)-2-oxa-5-azabicyclo[2.2.1]hept-5-yl-2-((S)-trifluoromethyl)-2,3-dihydro-1H-imidazo[1,2-a]pyrimidin-5-one], the IC50 in assay [1] (setting [2]) is greater than 200 nM; at human PI3Kα, greater than 7200 nM.

Regarding `Cc1ccc(C(=O)CN2c3nc(N4C[C@@H]5C[C@H]4CO5)cc(=O)n3C[C@@]2(C)C(F)(F)F)cn1` [Compound 17, 2-methyl-1-[2-(6-methylpyrid-3-yl)-2-oxoethyl]-7-(1S,4S)-2-oxa-5-azabicyclo[2.2.1]hept-5-yl-2-((S)-trifluoromethyl)-2,3-dihydro-1H-imidazo[1,2-a]pyrimidin-5-one], the IC50 in assay [1] (setting [2]) was 160 nM; at human PI3Kα, no less than 10000 nM.

As for `Cc1ncccc1C(=O)CN1c2nc(N3C[C@@H]4C[C@H]3CO4)cc(=O)n2C[C@@]1(C)C(F)(F)F` [Compound 18, 2-Methyl-1-[2-(2-methylpyrid-3-yl)-2-oxoethyl]-7-(1S,4S)-2-oxa-5-azabicyclo[2.2.1]hept-5-yl-2-((S)-trifluoromethyl)-2,3-dihydro-1H-imidazo[1,2-a]pyrimidin-5-one], the IC50 in assay [1] was 93 nM; at human PI3Kα, greater than 10000 nM.

In the case of `Cc1ncccc1C(=O)CN1c2nc(N3C[C@@H]4C[C@H]3CO4)cc(=O)n2CC[C@H]1C(F)(F)F` [Compound 19, (8S)-9-[2-(2-methylpyrid-3-yl)-2-oxoethyl]-2-(1S,4S)-2-oxa-5-azabicyclo[2.2.1]hept-5-yl-8-trifluoromethyl-6,7,8,9-tetrahydropyrimido[1,2-a]pyrimidin-4-one], the IC50 in assay [1] (setting [2]) is 24 nM; at human PI3Kα, greater than 10000 nM.

`Cc1ccncc1C(=O)CN1c2nc(N3C[C@@H]4C[C@H]3CO4)cc(=O)n2CC[C@H]1C(F)(F)F` [Compound 20, (8S)-9-[2-(4-methylpyrid-3-yl)-2-oxoethyl]-2-(1S,4S)-2-oxa-5-azabicyclo[2.2.1]hept-5-yl-8-trifluoromethyl-6,7,8,9-tetrahydropyrimido[1,2-a]pyrimidin-4-one]: the IC50 in assay [1] (setting [2]) was 35 nM; at human PI3Kα, greater than 10000 nM.

For `C[C@@]1(C(F)(F)F)Cn2c(nc(N3C[C@@H]4C[C@H]3CO4)cc2=O)N1CC(=O)c1cccnc1` [Compound 21, 2-methyl-7-(1S,4S)-2-oxa-5-azabicyclo[2.2.1]hept-5-yl-1-(2-oxo-2-pyrid-3-ylethyl)-2-((S)-trifluoromethyl)-2,3-dihydro-1H-imidazo[1,2-a]pyrimidin-5-one], the half-maximal inhibitory concentration (IC50) was 82 nM in assay [1] (setting [2]) and greater than 10000 nM at human PI3Kα.

`O=C(CN1c2nc(N3C[C@@H]4C[C@H]3CO4)cc(=O)n2CC[C@H]1C(F)(F)F)c1ccc(NC2CC2)nc1` [Compound 22, (8S)-9-[2-(6-Cyclopropylaminopyrid-3-yl)-2-oxoethyl]-2-(1S,4S)-2-oxa-5-azabicyclo[2.2.1]hept-5-yl-8-trifluoromethyl-6,7,8,9-tetrahydropyrimido[1,2-a]pyrimidin-4-one]: the concentration for half-maximal inhibition (IC50) in assay [1] (setting [2]) is greater than 200 nM; on human PI3Kα it was greater than 10000 nM.

`CCNC(=O)Nc1ccc(CCN2c3nc(N4C[C@@H]5C[C@H]4CO5)cc(=O)n3CC[C@H]2C(F)(F)F)cc1` [Compound 23, 1-ethyl-3-{4-[2-((8S)-8-(1S,4S)-2-oxa-5-azabicyclo[2.2.1]hept-5-yl-6-oxo-2-trifluoromethyl-3,4-dihydro-2H,6H-pyrimido[1,2-a]pyrimidin-1-yl)ethyl]phenyl}urea]: the IC50 in assay [1] (setting [2]) is 3 nM; at human PI3Kα, 1040 nM.

Take `CCNC(=O)Nc1ccc(CCN2c3nc(N4C[C@@H]5C[C@H]4CO5)cc(=O)n3C[C@@]2(C)C(F)(F)F)cc1` [Compound 24, 1-ethyl-3-(4-{2-[(1S,4S)-2-methyl-7-2-oxa-5-azabicyclo[2.2.1]hept-5-yl-5-oxo-2-((S)-trifluoromethyl)-2,3-dihydro-5H-imidazo[1,2-a]pyrimidin-1-yl]ethyl}phenyl)urea]: the IC50 in assay [1] (setting [2]) came out at 8 nM; on human PI3Kα, 2440 nM.

On to `Cc1ncsc1CCN1c2nc(N3C[C@@H]4C[C@H]3CO4)cc(=O)n2CC[C@H]1C(F)(F)F` [Compound 25, (8S)-9-[2-(4-Methylthiazol-5-yl)ethyl]-2-(1S,4S)-2-oxa-5-azabicyclo[2.2.1]hept-5-yl-8-trifluoromethyl-6,7,8,9-tetrahydropyrimido[1,2-a]pyrimidin-4-one], for which the figures for the IC50 (in assay [1] (setting [2]); on human PI3Kα) were less than 3.4 nM and 1000 nM, respectively.

Consider `Cc1ncsc1CCN1c2nc(N3C[C@@H]4C[C@H]3CO4)cc(=O)n2C[C@@]1(C)C(F)(F)F` [Compound 26, 2-methyl-1-[2-(4-methylthiazol-5-yl)ethyl]-7-(1S,4S)-2-oxa-5-azabicyclo[2.2.1]hept-5-yl-2-((S)-trifluoromethyl)-2,3-dihydro-1H-imidazo[1,2-a]pyrimidin-5-one], for which the figures for the IC50 (in assay [1] (setting [2]); on human PI3Kα) were 10 nM and 2000 nM, respectively.

For `Cc1n[nH]c(C)c1CCN1c2nc(N3C[C@@H]4C[C@H]3CO4)cc(=O)n2CC[C@H]1C(F)(F)F` [Compound 27, (8S)-9-[2-(3,5-Dimethyl-1H-pyrazol-4-yl)ethyl]-2-(1S,4S)-2-oxa-5-azabicyclo[2.2.1]hept-5-yl-8-trifluoromethyl-6,7,8,9-tetrahydropyrimido[1,2-a]pyrimidin-4-one], the IC50 is less than 4.5 nM in assay [1] (setting [2]) and 1530 nM at human PI3Kα.

For `Cc1n[nH]c(C)c1CCN1c2nc(N3C[C@@H]4C[C@H]3CO4)cc(=O)n2C[C@@]1(C)C(F)(F)F` [Compound 28, 1-[2-(3,5-Dimethyl-1H-pyrazol-4-yl)ethyl]-2-methyl-7-(1S,4S)-2-oxa-5-azabicyclo[2.2.1]hept-5-yl-2-((S)-trifluoromethyl)-2,3-dihydro-1H-imidazo[1,2-a]pyrimidin-5-one], the IC50 in assay [1] stood at 9 nM; at human PI3Kα, 2260 nM.

Consider `CC(C)(C)C(=O)CN1c2nc(N3C[C@@H]4C[C@H]3CO4)cc(=O)n2CC[C@H]1C(F)(F)F` [Compound 29, (8S)-9-(3,3-dimethyl-2-oxobutyl)-2-(1S,4S)-2-oxa-5-azabicyclo[2.2.1]hept-5-yl-8-trifluoromethyl-6,7,8,9-tetrahydropyrimido[1,2-a]pyrimidin-4-one], for which the IC50 in assay [1] (setting [2]) came out at 46 nM; on human PI3Kα, 7930 nM.

`CC(C)(C)C(=O)CN1c2nc(N3C[C@@H]4C[C@H]3CO4)cc(=O)n2C[C@@]1(C)C(F)(F)F` [Compound 30, 1-(3,3-Dimethyl-2-oxobutyl)-2-methyl-7-(1S,4S)-2-oxa-5-azabicyclo[2.2.1]hept-5-yl-2-((S)-trifluoromethyl)-2,3-dihydro-1H-imidazo[1,2-a]pyrimidin-5-one]: the IC50 in assay [1] was greater than 240 nM; on human PI3Kα, greater than 10000 nM.

Regarding `Cc1cc(C(=O)CN2c3nc(N4C[C@@H]5C[C@H]4CO5)cc(=O)n3CC[C@H]2C(F)(F)F)cnc1N` [Compound 31, (8S)-9-[2-(6-Amino-5-methylpyrid-3-yl)-2-oxoethyl]-2-(1S,4S)-2-oxa-5-azabicyclo[2.2.1]hept-5-yl-8-trifluoromethyl-6,7,8,9-tetrahydropyrimido[1,2-a]pyrimidin-4-one], the IC50 in assay [1] (setting [2]) stood at 75 nM; on human PI3Kα, 6350 nM.

For the origin of these results see patent US9321790B2, “Pyrimidinone derivatives as antimalarial agents” (SANOFI, priority 2012, dated 2016).
